Earlier results, collected in US7501136B2, “Deodorant composition” (Kao Corporation, priority 2003, dated 2009).

Test system: Staphylococcus aureus
Settings: against Staphylococcus aureus

Q: Which “MIC (Minimum Inhibitory Concentration)” value does the source give for `Cc1cc(O)ccc1C(C)C` [isopropyl methylphenol] here?
A: 0.015%
